Key:
HT-29 = test: Inhibition of cells growth by colorimetric (SRB) assay, HT-29; conditions: for GI50 / CC50: Homo sapiens, HT-29, 48 h; for GI50: read-out: GI50 HT-29, SRB assay, 48 hours exposure; for CC50: read-out: LC50 HT-29, SRB assay, 48 hours exposure; for TGI HT-29: SRB assay, 48 hours exposure
Description: (§1) The finality of these assays is to interrupt the growth of a “in vitro” tumor cell culture by means a continued exhibition of the cells to the sample to be testing.
(§2) This form of the assay employs 96 well cell culture microplates of 9 mm diameter (Faircloth, 1988; Mosmann, 1983). Most of the cell lines are obtained from American Type Culture Collection (ATCC) derived from different human cancer types.
(§3) Cells are maintained in RPMI 1640 10% FBS, supplemented with 0.1 g/l penicillin and 0.1 g/l streptomycin sulphate and then incubated at 37° C., 5% CO2 and 98% humidity. For the experiments, cells were harvested from subconfluent cultures using trypsin and resuspended in fresh medium before plating.
(§4) Cells are seeded in 96 well microtiter plates, at 5×10^3 cells per well in aliquots of 195 μl medium, and they are allowed to attach to the plate surface by growing in drug free medium for 18 hours. Afterward, samples are added in aliquots of 5 μl in a ranging from 10 to 10^−8 μg/ml, dissolved in DMSO/EtOH/PBS (0.5:0.5:99). After 48 hours exposure, the antitumor effect are measured by the SRB methodology: cells are fixed by adding 50 μl of cold 50% (wt/vol) trichloroacetic acid (TCA) and incubating for 60 minutes at 4° C. Plates are washed with deionized water and dried. One hundred μl of SRB solution (0.4% wt/vol in 1% acetic acid) is added to each microtiter well and incubated for 10 minutes at room temperature. Unbound SRB is removed by washing with 1% acetic acid. Plates are air dried and bound stain is solubilized with Tris buffer. Optical densities are read on a automated spectrophotometric plate reader at a single wavelength of 490 nm.
(§5) The values for mean +/−SD of data from triplicate wells are calculated. Some parameters for cellular responses can be calculated: GI=growth inhibition, TGI=total growth inhibition (cytostatic effect) and LC=cell killing (cytotoxic effect).

A-549 = test: Inhibition of cells growth by colorimetric (SRB) assay, A-549; conditions: for GI50 / CC50: Homo sapiens, A549, 48 h; for GI50: read-out: GI50 A-549, SRB assay, 48 hours exposure; for CC50: read-out: LC50 A-549, SRB assay, 48 hours exposure; for TGI A-549: SRB assay, 48 hours exposure
Description: as §1, §2, §3, §4, §5

IGROV-ET = test: Inhibition of cells growth by colorimetric (SRB) assay, IGROV-ET; conditions: for GI50 / CC50: Homo sapiens, 48 h; for GI50: read-out: GI50 IGROV-ET, SRB assay, 48 hours exposure; for CC50: read-out: LC50 IGROV-ET, SRB assay, 48 hours exposure; for TGI IGROV-ET: SRB assay, 48 hours exposure
Description: as §1, §2, §3, §4, §5

LoVo-Dox = test: Inhibition of cells growth by colorimetric (SRB) assay, LoVo-Dox; conditions: for GI50 / CC50: Homo sapiens, 48 h; for GI50: read-out: GI50 LOVO-DOX, SRB assay, 48 hours exposure; for CC50: read-out: LC50 LOVO-DOX, SRB assay, 48 hours exposure; for TGI LOVO-DOX: SRB assay, 48 hours exposure
Description: as §1, §2, §3, §4, §5

PANC-1 = test: Inhibition of cells growth by colorimetric (SRB) assay, PANC-1; conditions: for GI50 / CC50: Homo sapiens, PANC-1, 48 h; for GI50: read-out: GI50 PANC-1, SRB assay, 48 hours exposure; for CC50: read-out: LC50 PANC-1, SRB assay, 48 hours exposure; for TGI PANC-1: SRB assay, 48 hours exposure
Description: as §1, §2, §3, §4, §5

IGROV-1 = test: Inhibition of cells growth by colorimetric (SRB) assay, IGROV-1; conditions: for GI50 / CC50: Homo sapiens, IGROV-1, 48 h; for GI50: read-out: GI50 IGROV, SRB assay, 48 hours exposure; for CC50: read-out: LC50 IGROV, SRB assay, 48 hours exposure; for TGI IGROV: SRB assay, 48 hours exposure
Description: as §1, §2, §3, §4, §5

K-562 = test: Inhibition of cells growth by colorimetric (SRB) assay, K-562; conditions: for GI50 / CC50: Homo sapiens, K562, 48 h; for GI50: read-out: GI50 K-562, SRB assay, 48 hours exposure; for CC50: read-out: LC50 K-562, SRB assay, 48 hours exposure; for TGI K-562: SRB assay, 48 hours exposure
Description: as §1, §2, §3, §4, §5

SK-OV-3 = test: Inhibition of cells growth by colorimetric (SRB) assay, SK-OV-3; conditions: for GI50 / CC50: Homo sapiens, SK-OV-3, 48 h; for GI50: read-out: GI50 SKOV-3, SRB assay, 48 hours exposure; for CC50: read-out: LC50 SKOV-3, SRB assay, 48 hours exposure; for TGI SKOV-3: SRB assay, 48 hours exposure
Description: as §1, §2, §3, §4, §5

LNCaP = test: Inhibition of cells growth by colorimetric (SRB) assay, LNCaP; conditions: for GI50 / CC50: Homo sapiens, LNCaP, 48 h; for GI50: read-out: GI50 LN-caP, SRB assay, 48 hours exposure; for CC50: read-out: LC50 LN-caP, SRB assay, 48 hours exposure; for TGI LN-caP: SRB assay, 48 hours exposure
Description: as §1, §2, §3, §4, §5

LoVo = test: Inhibition of cells growth by colorimetric (SRB) assay, LoVo; conditions: for GI50 / CC50: Homo sapiens, LoVo, 48 h; for GI50: read-out: GI50 LOVO, SRB assay, 48 hours exposure; for CC50: read-out: LC50 LOVO, SRB assay, 48 hours exposure; for TGI LOVO: SRB assay, 48 hours exposure
Description: as §1, §2, §3, §4, §5

DU-145 = test: Inhibition of cells growth by colorimetric (SRB) assay, DU-145; conditions: for GI50 / CC50: Homo sapiens, DU-145, 48 h; for GI50: read-out: GI50 DU-145, SRB assay, 48 hours exposure; for CC50: read-out: LC50 DU-145, SRB assay, 48 hours exposure; for TGI DU-145: SRB assay, 48 hours exposure
Description: as §1, §2, §3, §4, §5

SK-MEL-28 = test: Inhibition of cells growth by colorimetric (SRB) assay, SK-MEL-28; conditions: for GI50 / CC50: Homo sapiens, SK-MEL-28, 48 h; for GI50: read-out: GI50 MEL-28, SRB assay, 48 hours exposure; for CC50: read-out: LC50 MEL-28, SRB assay, 48 hours exposure; for TGI MEL-28: SRB assay, 48 hours exposure
Description: as §1, §2, §3, §4, §5

Compound | GI50 (HT-29) [µM] | CC50 (HT-29) [µM] | TGI HT-29 (HT-29) | GI50 (A-549) [µM] | CC50 (A-549) [µM] | TGI A-549 (A-549) | GI50 (IGROV-ET) [µM] | CC50 (IGROV-ET) [µM] | TGI IGROV-ET (IGROV-ET) | GI50 (LoVo-Dox) [µM] | CC50 (LoVo-Dox) [µM] | TGI LOVO-DOX (LoVo-Dox) | GI50 (PANC-1) [µM] | CC50 (PANC-1) [µM] | TGI PANC-1 (PANC-1) | GI50 (IGROV-1) [µM] | CC50 (IGROV-1) [µM] | TGI IGROV (IGROV-1) | GI50 (K-562) [µM] | CC50 (K-562) [µM] | further results
COc1ccc(CNc2nccc(-c3c4c(OCc5ccccc5)ccnc4n4c(NCc5ccc(OC)cc5)nccc34)n2)cc1 [Compound 53] | 16 | 16 | 1.60E−05 | 16 | 16 | 1.60E−05 | – | – | – | – | – | – | – | – | – | – | – | – | – | – | –
CSc1nccc2c(C(C)C)c3cccnc3n12 [Compound 61] | 28.9 | ≥ 38.9 | 3.89E−05 | 24.6 | ≥ 38.9 | 3.89E−05 | 7.34 | ≥ 38.9 | 2.27E−05 | 13.7 | ≥ 38.9 | 3.89E−05 | 11.5 | ≥ 38.9 | 3.83E−05 | 15.7 | ≥ 38.9 | 3.49E−05 | 9.79 | ≥ 38.9 | TGI K-562 (K-562): 2.44E−05; GI50 (SK-OV-3): 12.4 µM; CC50 (SK-OV-3): ≥ 38.9 µM; TGI SKOV-3 (SK-OV-3): 2.96E−05; GI50 (LNCaP): 8.7 µM; CC50 (LNCaP): 37.1 µM; TGI LN-caP (LNCaP): 1.80E−05; GI50 (LoVo): 23 µM; CC50 (LoVo): ≥ 38.9 µM; TGI LOVO (LoVo): 3.89E−05; GI50 (DU-145): 14.9 µM; CC50 (DU-145): ≥ 38.9 µM; TGI DU-145 (DU-145): 3.89E−05; GI50 (SK-MEL-28): 20.2 µM; CC50 (SK-MEL-28): ≥ 38.9 µM; TGI MEL-28 (SK-MEL-28): 3.89E−05
Nc1nccc2c(-c3cccc([N+](=O)[O-])c3)c3cccnc3n12 [Compound 64] | 32.8 | 32.8 | 3.28E−05 | 31.6 | 32.8 | 3.28E−05 | 18.9 | 32.8 | 3.28E−05 | 22.7 | 32.8 | 3.28E−05 | 20.9 | 32.8 | 3.28E−05 | 14.4 | 32.8 | 3.28E−05 | 9.24 | 32.8 | TGI K-562 (K-562): 2.47E−05; GI50 (SK-OV-3): 22.3 µM; CC50 (SK-OV-3): 32.8 µM; TGI SKOV-3 (SK-OV-3): 3.28E−05; GI50 (LNCaP): 2.84 µM; CC50 (LNCaP): 19.9 µM; TGI LN-caP (LNCaP): 7.89E−06; GI50 (LoVo): 23.3 µM; CC50 (LoVo): 32.8 µM; TGI LOVO (LoVo): 3.28E−05; GI50 (DU-145): 31 µM; CC50 (DU-145): 32.8 µM; TGI DU-145 (DU-145): 3.28E−05; GI50 (SK-MEL-28): 21.7 µM; CC50 (SK-MEL-28): 32.8 µM; TGI MEL-28 (SK-MEL-28): 3.28E−05
COC(=O)C(C(=O)OC)c1nccc(-c2c3cccnc3n3c(N)nccc23)n1 [Compound 74] | 1.22 | 25.5 | 2.55E−05 | 5.35 | 21.3 | 1.07E−05 | – | – | – | – | – | – | – | – | – | – | – | – | – | – | –

— US7772241B2, “Variolin derivatives and their use as antitumor agents” (Pharma Mar S.A., priority 2001, dated 2010)
